Series [1] relates to Botryotinia fuckeliana (Botrytis cinerea). Kind of series: Botryotinia fuckeliana (Botrytis cinerea) / liquid culture (gray mould). The conditions noted are these: 72 h, 20 ppm, liquid culture, inhibition of growth photometrically 3-4 days after application, compared to untreated control, read-out: control of Botryotinia fuckeliana. Format: cell-based.
Series [2] concerns Glomerella lagenarium (Colletotrichum lagenarium). Kind of series: Glomerella lagenarium (Colletotrichum lagenarium) / liquid culture (anthracnose). It counts as cell-based. As to conditions: Colletotrichum orbiculare; 20 ppm; liquid culture, inhibition of growth photometrically 3-4 days after application; compared to untreated control; read-out: control of Glomerella lagenarium.

For series [3], the system named is Fusarium culmorum. Kind of series: microbe, parasite or virus in culture. Format: cell-based. As to conditions: read-out: control of Fusarium culmorum.
Series [4] concerns Monographella nivalis (Microdochium nivale). In words: Monographella nivalis (Microdochium nivale) / liquid culture (foot rot cereals). Format: cell-based. The conditions noted are these: 96 h, inhibition of growth photometrically 4-5 days after application, compared to untreated control.
In series [5] the test system is Magnaporthe grisea (Pyricularia oryzae). In words: whole plant or invertebrate. It counts as in vivo. As to conditions: foliar, read-out: control of Magnaporthe grisea.
The test system is the same in series [6]. In words: microbe, parasite or virus in culture. Format: cell-based. As to conditions: 72 h, read-out: control of Magnaporthe grisea.
Series [7] relates to Sclerotinia sclerotiorum. Kind of series: Sclerotinia sclerotiorum / liquid culture (cottony rot). As to conditions: 72 h, read-out: control of Sclerotinia sclerotiorum.
Description: Sclerotinia sclerotiorum/Liquid Culture (Cottony Rot)
Mycelia fragments of a newly grown liquid culture of the fungus are directly mixed into nutrient broth (Vogels broth). After placing a (DMSO) solution of test compound into a microtiter plate (96-well format) the nutrient broth containing the fungal material is added. The test plates are incubated at 24° C. and the inhibition of growth is determined photometrically 3-4 days after application.
In series [8] the test system is Fusarium culmorum. In words: whole plant or invertebrate. Format: in vivo, Fusarium culmorum on wheat spikelets cv. Monsun. The conditions noted are these: in Triticum aestivum, read-out: control of Fusarium culmorum.
The subject of series [9] is Gibberella zeae (Fusarium graminearum). In words: whole plant or invertebrate. It counts as in vivo. The conditions noted are these: in Triticum aestivum, 144 h, read-out: control of Gibberella zeae.

Experimental findings from patent publication US11185074B2, “Microbiocidal quinoline (thio)carboxamide derivatives” (SYNGENTA PARTICIPATIONS AG, priority 2017, dated 2021) are described below.

SMILES strings stand for the structures. A value given as a limit tells only on which side of the number the result lay.

Consider `CCCC(C)CC(C)NC(=O)c1cnc2c(C)cccc2c1` (centres unmarked) [E-42], for which the inhibition of growth at 20 ppm in series [1], in [2], in [3] and in series [4] was at least 80% in each case. The pest or weed control at 200 ppm in series [5] is at least 80%.
The term melting point denotes the temperature, or range, at which the solid turns liquid. On to `CC(CC1CCCCC1)(CC(F)(F)F)NC(=O)c1cnc2c(F)c(F)ccc2c1` (centres unmarked) [E-58], for which the melting point lay in the range of 99 to 102 °C. The inhibition of growth at 20 ppm in [1] is at least 80%. Besides, the inhibition of growth at 20 ppm in series [2] was at least 80%. The inhibition of growth at 20 ppm in series [3] is at least 80%. The same molecule had an inhibition of growth at 20 ppm in series [4] of at least 80%. The inhibition of growth at 20 ppm in series [6] is at least 80%. Also, the pest or weed control at 200 ppm in [5] was at least 80%. Further, the inhibition of growth at 20 ppm in series [7] was at least 80%.
In turn, `CC(C)=C(F)CC(CC(C)C)NC(=O)c1cnc2c(F)cccc2c1` (centres unmarked) [E-18] had a melting point of 75 to 76 °C. The inhibition of growth at 20 ppm in series [1] is at least 80%. Besides, the inhibition of growth at 20 ppm in [2] was at least 80%. Moreover, the inhibition of growth at 20 ppm in series [3] was at least 80%. Besides, the pest or weed control at 200 ppm in series [8] is at least 80%. Also, in series [9], the pest or weed control at 200 ppm was at least 80%. This molecule also had an inhibition of growth at 20 ppm in series [4] of at least 80%. For the same molecule, the inhibition of growth at 20 ppm in series [6] was at least 80%.
As to `Cc1cccc2cc(C(=O)NC(C)(CC3CCCCC3)CC(F)(F)F)cnc12` (centres unmarked) [E-61], the melting point fell in the range of 107 to 110 °C. Further, the inhibition of growth at 20 ppm in series [1] is at least 80%. Further, in series [2], the inhibition of growth at 20 ppm was at least 80%. In addition, the inhibition of growth at 20 ppm in series [3] is at least 80%. In series [4], this molecule gave an inhibition of growth at 20 ppm of at least 80%. Besides, the inhibition of growth at 20 ppm in series [6] is at least 80%. Further, the pest or weed control at 200 ppm in [5] is at least 80%. The inhibition of growth at 20 ppm in series [7] was at least 80%.
`C[C@](CC1CCCCC1)(CC(F)(F)F)NC(=O)c1cnc2c(F)cccc2c1` [F-3, N-[(1S)-1-(cyclohexylmeth-yl)-3,3,3-trifluoro-1-methyl-propyl]-8-fluoro-quinoline-3-carboxamide] had a melting point of 132 to 133 °C. Further, in [1], the inhibition of growth at 20 ppm is at least 80%. The inhibition of growth at 20 ppm in [2] was at least 80%. Moreover, in series [3], the inhibition of growth at 20 ppm is at least 80%. In addition, the inhibition of growth at 20 ppm in [4] was at least 80%. In addition, the inhibition of growth at 20 ppm in [6] was at least 80%. The pest or weed control at 200 ppm in series [5] was at least 80%. The inhibition of growth at 20 ppm in series [7] is at least 80%.
On to `CC(CC1CCCC1)(CC(F)(F)F)NC(=O)c1cnc2c(F)c(F)ccc2c1` (centres unmarked) [E-57], for which the melting point lay in the range of 115 to 116 °C. For the same molecule, the inhibition of growth at 20 ppm in [1] was at least 80%. In addition, the inhibition of growth at 20 ppm in series [2] was at least 80%. The inhibition of growth at 20 ppm in series [3] was at least 80%. In series [4], the inhibition of growth at 20 ppm was at least 80%. For the same molecule, the inhibition of growth at 20 ppm in [6] was at least 80%. The pest or weed control at 200 ppm in [5] is at least 80%. Moreover, the inhibition of growth at 20 ppm in series [7] was at least 80%.
Regarding `CC(C)(CCc1cccc(C(F)(F)F)c1)NC(=O)c1cnc2c(F)cccc2c1` [E-27], the inhibition of growth at 20 ppm in series [1], in series [2], in series [3] and in [4] was at least 80% throughout. The pest or weed control at 200 ppm in series [5] is at least 80%.
For `CCC(CC)CC(C)(CC(F)(F)F)NC(=O)c1cnc2c(F)cccc2c1` (centres unmarked) [E-45], the inhibition of growth at 20 ppm in [1], in [2], in series [3], in series [4] and in series [6] was at least 80% throughout. Also, the pest or weed control at 200 ppm in series [9] was at least 80%.
As for `CC(C)(CCCc1ccccc1)NC(=O)c1cnc2c(F)cccc2c1` [E-23], the inhibition of growth at 20 ppm in [1], in series [2], in series [3] and in [4] was at least 80% in each case. Besides, the pest or weed control at 200 ppm in series [8] and in [9] was at least 80% each time.
As for `C/C=C(\C)CC(C)(CC(C)C)NC(=O)c1cnc2c(F)cccc2c1` (centres unmarked) [E-5], the inhibition of growth at 20 ppm in [1], in series [2], in series [3], in series [4] and in series [6] was at least 80% throughout. Moreover, the pest or weed control at 200 ppm in series [8] and in [9] was at least 80% throughout.
Take `CC(CC1CC=CCC1)(CC(F)(F)F)NC(=O)c1cnc2c(F)cccc2c1` (centres unmarked) [E-54]: the melting point fell in the range of 115 to 118 °C. In addition, the inhibition of growth at 20 ppm in series [1] was at least 80%. In addition, in [2], the inhibition of growth at 20 ppm was at least 80%. Besides, the inhibition of growth at 20 ppm in series [3] is at least 80%. In addition, the pest or weed control at 200 ppm in series [8] is at least 80%. Also, the inhibition of growth at 20 ppm in series [4] is at least 80%. Also, the inhibition of growth at 20 ppm in [6] was at least 80%. Further, the inhibition of growth at 20 ppm in [7] is at least 80%.
In the case of `CC(C)CC(CC(C)C)NC(=O)c1cnc2c(F)cccc2c1` [E-9], the melting point was in the range of 170 to 172 °C. The inhibition of growth at 20 ppm in series [1] was at least 80%. Further, the inhibition of growth at 20 ppm in series [2] was at least 80%. The inhibition of growth at 20 ppm in [3] was at least 80%. For the same molecule, the pest or weed control at 200 ppm in series [8] is at least 80%. Further, the pest or weed control at 200 ppm in series [9] is at least 80%. The same molecule came in with an inhibition of growth at 20 ppm in series [4] of at least 80%. Besides, in [6], the inhibition of growth at 20 ppm is at least 80%.
With `CCCC(C)CC(C)(CC(F)(F)F)NC(=O)c1cnc2ccccc2c1` (centres unmarked) [E-46], the inhibition of growth at 20 ppm in series [1], in series [2] and in [3] was at least 80% throughout. In addition, the pest or weed control at 200 ppm in [8] and in [9] was at least 80% each time.
In turn, `CC(C)=C(F)CC(C)(CC(C)C)NC(=O)c1cnc2c(F)cccc2c1` (centres unmarked) [E-6] registered a melting point of 119 to 121 °C. Moreover, in series [1], the inhibition of growth at 20 ppm was at least 80%. Further, the inhibition of growth at 20 ppm in series [2] was at least 80%. Also, the inhibition of growth at 20 ppm in [3] is at least 80%. Also, in series [8], the pest or weed control at 200 ppm is at least 80%. For the same molecule, the pest or weed control at 200 ppm in series [9] is at least 80%. Further, the inhibition of growth at 20 ppm in [4] is at least 80%. Besides, the inhibition of growth at 20 ppm in series [6] was at least 80%.
As for `CC(C)(Cc1ccccc1)C(C)(C)NC(=O)c1cnc2c(F)cccc2c1` [E-21], the melting point was in the range of 131 to 132 °C. Also, the inhibition of growth at 20 ppm in series [1] was at least 80%. In [3], the inhibition of growth at 20 ppm is at least 80%. In addition, the pest or weed control at 200 ppm in series [8] was at least 80%. Moreover, the pest or weed control at 200 ppm in [9] was at least 80%. This molecule showed an inhibition of growth at 20 ppm in series [4] of at least 80%. In addition, the inhibition of growth at 20 ppm in [6] was at least 80%.
The molecule `CC(C)(C)C(CCc1ccccc1)NC(=O)c1cnc2c(F)cccc2c1` (centres unmarked) [E-14] had a melting point of 55 to 65 °C. Also, in [1], the inhibition of growth at 20 ppm was at least 80%. Besides, the inhibition of growth at 20 ppm in series [2] is at least 80%. For the same molecule, in series [3], the inhibition of growth at 20 ppm was at least 80%. Moreover, the pest or weed control at 200 ppm in series [8] was at least 80%. Moreover, the pest or weed control at 200 ppm in [9] was at least 80%. For the same molecule, the inhibition of growth at 20 ppm in series [4] was at least 80%. Moreover, the inhibition of growth at 20 ppm in [6] was at least 80%.
`C=C(C)CC(C)(CC1CCCCC1)NC(=O)c1cnc2c(F)c(F)ccc2c1` (centres unmarked) [E-48] had a melting point of 115 to 117 °C. Moreover, the inhibition of growth at 20 ppm in series [1] was at least 80%. Besides, in series [2], the inhibition of growth at 20 ppm was at least 80%. The inhibition of growth at 20 ppm in series [3] is at least 80%. In addition, in [8], the pest or weed control at 200 ppm is at least 80%. The inhibition of growth at 20 ppm in series [4] is at least 80%. For the same molecule, the inhibition of growth at 20 ppm in series [6] was at least 80%. Also, the inhibition of growth at 20 ppm in series [7] is at least 80%.
Regarding `C=C(C)CC(C)(CC(=C)C)NC(=O)c1cnc2c(F)cccc2c1` [E-2, N-[1,3-dimethyl-1-(2-methylallyl)but-3-enyl]-8-fluoro-quinoline-3-carboxamide], the melting point is 116 to 118 °C. Also, in series [1], the inhibition of growth at 20 ppm is at least 80%. The inhibition of growth at 20 ppm in series [2] is at least 80%. Moreover, in series [3], the inhibition of growth at 20 ppm is at least 80%. Besides, the pest or weed control at 200 ppm in series [8] is at least 80%. Further, the pest or weed control at 200 ppm in series [9] was at least 80%. In addition, the inhibition of growth at 20 ppm in [4] was at least 80%. The inhibition of growth at 20 ppm in series [6] was at least 80%.
As for `CCCC(C)CC(C)(CC(F)(F)F)NC(=O)c1cnc2c(C)cccc2c1` (centres unmarked) [E-47], the inhibition of growth at 20 ppm in series [1], in [2], in series [3], in series [4] and in series [6] was at least 80% throughout. Moreover, the pest or weed control at 200 ppm in [8] and in series [5] was at least 80% each time.
With `CC1(C[C@](C)(CC(F)(F)F)NC(=O)c2cnc3c(F)cccc3c2)CC1` [F-1, 8-fluoro-N-[(1R)-3,3,3-trifluoro-1-methyl-1-[(1-methylcyclo-propyl)meth-yl]propyl] quinoline-3-carboxamide], the inhibition of growth at 20 ppm in [1], in series [2], in series [3], in series [4] and in series [6] was at least 80% in each case. Moreover, the pest or weed control at 200 ppm in series [8] and in series [9] was at least 80% each time.
